In ChEMBL document CHEMBL3044916, “Attract-and-kill: a new strategy for the management of the potato tuber moths Phthorimaea operculella (Zeller) and Symmetrischema tangolias (Gyen) in potato: laboratory experiments towards optimising pheromone and insecticide concentration” (2010):
Active and inactive are the calls of the source. The rule behind the calls is not given here.

What was measured:
Phthorimaea operculella [1] = experiment: Insecticidal activity against Phthorimaea operculella assessed as mortality at 1.25 g/l after 48 hr; format: functional
Phthorimaea operculella [2] = experiment: Insecticidal activity against Phthorimaea operculella assessed as mortality at 2.5 g/l after 48 hr; format: functional
Phthorimaea operculella [3] = experiment: Insecticidal activity against Phthorimaea operculella assessed as mortality at 2.5 g/l after 24 hr; format: functional
Phthorimaea operculella [4] = experiment: Insecticidal activity against Phthorimaea operculella assessed as mortality at 5 g/l after 24 hr; format: functional
Phthorimaea operculella [5] = experiment: Insecticidal activity against Phthorimaea operculella assessed as mortality at 5 g/l after 48 hr; format: functional
Symmetrischema tangolias [6] = experiment: Insecticidal activity against Symmetrischema tangolias assessed as mortality at 0.65 g/l after 48 hr; format: functional
Symmetrischema tangolias [7] = experiment: Insecticidal activity against Symmetrischema tangolias assessed as mortality at 0.65 g/l after 24 hr; format: functional
Symmetrischema tangolias [8] = experiment: Insecticidal activity against Symmetrischema tangolias assessed as mortality at 1.25 g/l after 48 hr; format: functional
Symmetrischema tangolias [9] = experiment: Insecticidal activity against Symmetrischema tangolias assessed as mortality at 1.25 g/l after 24 hr; format: functional
Symmetrischema tangolias [10] = experiment: Insecticidal activity against Symmetrischema tangolias assessed as mortality at 2.5 g/l after 48 hr; format: functional
Symmetrischema tangolias [11] = experiment: Insecticidal activity against Symmetrischema tangolias assessed as mortality at 2.5 g/l after 24 hr; format: functional
Symmetrischema tangolias [12] = experiment: Insecticidal activity against Symmetrischema tangolias assessed as mortality at 5 g/l after 48 hr; format: functional
Symmetrischema tangolias [13] = experiment: Insecticidal activity against Symmetrischema tangolias assessed as mortality at 5 g/l after 24 hr; format: functional
Phthorimaea operculella [14] = experiment: Insecticidal activity against Phthorimaea operculella assessed as mortality at 0.35 g/l after 48 hr; format: functional
Phthorimaea operculella [15] = experiment: Insecticidal activity against Phthorimaea operculella assessed as mortality at 0.35 g/l after 24 hr; format: functional
Phthorimaea operculella [16] = experiment: Insecticidal activity against Phthorimaea operculella assessed as mortality at 0.65 g/l after 48 hr; format: functional
Phthorimaea operculella [17] = experiment: Insecticidal activity against Phthorimaea operculella assessed as mortality at 0.65 g/l after 24 hr; format: functional
Phthorimaea operculella [18] = experiment: Insecticidal activity against Phthorimaea operculella assessed as mortality at 1.25 g/l after 24 hr; format: functional
Symmetrischema tangolias [19] = experiment: Insecticidal activity against Symmetrischema tangolias assessed as mortality at 5 g/l after 8 days by cage bio assay relative to control; format: functional; conditions: 192 h
Phthorimaea operculella [20] = experiment: Insecticidal activity against Phthorimaea operculella assessed as mortality at 5 g/l after 6 days by cage bio assay relative to control; format: functional; conditions: 144 h
Symmetrischema tangolias [21] = experiment: Insecticidal activity against Symmetrischema tangolias assessed as mortality at 5 g/l after 36 days by cage bio assay relative to control; format: functional; conditions: 864 h
Phthorimaea operculella [22] = experiment: Insecticidal activity against Phthorimaea operculella assessed as mortality at 5 g/l after 36 days by cage bio assay relative to control; format: functional; conditions: 864 h
Phthorimaea operculella [23] = experiment: Insecticidal activity against Phthorimaea operculella assessed as mortality at 5 g/l after 3 days by cage bio assay relative to control; format: functional; conditions: 72 h
Symmetrischema tangolias [24] = experiment: Insecticidal activity against Symmetrischema tangolias assessed as mortality at 5 g/l after 4 days by attract-and-kill assay relative to control; format: functional; conditions: 96 h
Symmetrischema tangolias [25] = experiment: Insecticidal activity against Symmetrischema tangolias assessed as mortality at 5 g/l after 24 hr by attract-and-kill assay relative to control; format: functional
Phthorimaea operculella [26] = experiment: Insecticidal activity against Phthorimaea operculella assessed as mortality at 5 g/l after 24 hr by attract-and-kill assay relative to control; format: functional
Symmetrischema tangolias [27] = experiment: Insecticidal activity against Symmetrischema tangolias assessed as mortality at 5 g/l after 24 hr by attract-and-kill assay; format: functional, organism-based
Symmetrischema tangolias [28] = experiment: Insecticidal activity against Symmetrischema tangolias assessed as mortality at 5 g/l after 3 days by cage bio assay relative to control; format: functional; conditions: 72 h
Phthorimaea operculella [29] = experiment: Insecticidal activity against Phthorimaea operculella assessed as mortality at 5 g/l after 24 hr by attract-and-kill assay; format: functional, organism-based
Phthorimaea operculella [30] = experiment: Insecticidal activity against Phthorimaea operculella assessed as mortality at 5 g/l after 4 days by attract-and-kill assay relative to control; format: functional; conditions: 96 h
Symmetrischema tangolias [31] = experiment: Insecticidal activity against Symmetrischema tangolias assessed as mortality at 0.35 g/l after 48 hr; format: functional
Symmetrischema tangolias [32] = experiment: Insecticidal activity against Symmetrischema tangolias assessed as mortality at 0.35 g/l after 24 hr; format: functional

In the case of `CC1(C)C(C=C(Cl)Cl)C1C(=O)OC(C#N)c1ccc(F)c(Oc2ccccc2)c1` (configuration not stated) [CYFLUTHRIN], the mortality at 1250 µg/mL (Phthorimaea operculella [1]) is reported as 63.2%, the mortality at 2500 µg/mL (Phthorimaea operculella [2]) is reported as 63.2% and the mortality at 2500 µg/mL (Phthorimaea operculella [3]) is reported as 47.4%. It also gave a mortality at 5000 µg/mL (Phthorimaea operculella [4]) of 57.9%, a mortality at 5000 µg/mL (Phthorimaea operculella [5]) of 84.2% and a mortality at 650 µg/mL (Symmetrischema tangolias [6]) of 31.6%. It also gave a mortality at 650 µg/mL (Symmetrischema tangolias [7]) of 26.6%, a mortality at 1250 µg/mL (Symmetrischema tangolias [8]) of 42.2% and a mortality at 1250 µg/mL (Symmetrischema tangolias [9]) of 15.6%. It also gave a mortality at 2500 µg/mL (Symmetrischema tangolias [10]) of 68.3%, a mortality at 2500 µg/mL (Symmetrischema tangolias [11]) of 52.7% and a mortality at 5000 µg/mL (Symmetrischema tangolias [12]) of 77.7%. For the same compound, the mortality at 5000 µg/mL (Symmetrischema tangolias [13]) was 59.4%, the mortality at 350 µg/mL (Phthorimaea operculella [14]) was 31.6% and the mortality at 350 µg/mL (Phthorimaea operculella [15]) was 21.1%. The mortality at 650 µg/mL (Phthorimaea operculella [16]) was 47.4%, the mortality at 650 µg/mL (Phthorimaea operculella [17]) was 26.3% and the mortality at 1250 µg/mL (Phthorimaea operculella [18]) was 38.8%. For the same compound, the mortality at 5000 µg/mL (Symmetrischema tangolias [19]) was 100%, the mortality at 5000 µg/mL (Phthorimaea operculella [20]) was 100% and the mortality at 5000 µg/mL (Symmetrischema tangolias [21]) was 53%. It also gave a mortality at 5000 µg/mL (Phthorimaea operculella [22]) of 44%, a mortality at 5000 µg/mL (Phthorimaea operculella [23]) of 100% and a mortality at 5000 µg/mL (Symmetrischema tangolias [24]) of 100%. For the same compound, the mortality at 5000 µg/mL (Symmetrischema tangolias [25]) was 40%, the mortality at 5000 µg/mL (Phthorimaea operculella [26]) was 40% and the Activity (Symmetrischema tangolias [27]) was “Active”. The mortality at 5000 µg/mL (Symmetrischema tangolias [28]) was 100%, the Activity (Phthorimaea operculella [29]) was “Active” and the mortality at 5000 µg/mL (Phthorimaea operculella [30]) was 100%. It also gave a mortality at 350 µg/mL (Symmetrischema tangolias [31]) of 22.2% and a mortality at 350 µg/mL (Symmetrischema tangolias [32]) of 10.5%.
